# Experiments:
# Type in all cases: functional
# [1] = test system: K562; assay: Cytotoxicity against human K562 cells assessed as growth inhibition at 10 uM after 48 hrs by SRB assay relative to control; conditions: K562, 48 h, read-out: GI
# [2] = test system: OVCAR-5; assay: Cytotoxicity against human OVCAR5 cells assessed as growth inhibition at 10 uM after 48 hrs by SRB assay relative to control; conditions: OVCAR-5, 48 h, read-out: GI
# [3] = test system: HOP-92; assay: Cytotoxicity against human HOP92 cells assessed as growth inhibition at 10 uM after 48 hrs by SRB assay relative to control; conditions: HOP-92, 48 h, read-out: GI
# [4] = test system: SW-620; assay: Cytotoxicity against human SW620 cells assessed as growth inhibition at 10 uM after 48 hrs by SRB assay relative to control; conditions: SW-620, 48 h, read-out: GI
# [5] = test system: PC-3; assay: Cytotoxicity against human PC3 cells assessed as growth inhibition at 10 uM after 48 hrs by SRB assay relative to control; conditions: PC-3, 48 h, read-out: GI
# [6] = test system: NCI-H226; assay: Cytotoxicity against human NCI-H226 cells assessed as growth inhibition at 10 uM after 48 hrs by SRB assay relative to control; conditions: NCI-H226, 48 h, read-out: GI
# [7] = test system: A498; assay: Cytotoxicity against human A498 cells assessed as growth inhibition at 10 uM after 48 hrs by SRB assay relative to control; conditions: A498, 48 h, read-out: GI
# [8] = Cytotoxicity against human NCI-ADR-RES cells assessed as growth inhibition at 10 uM after 48 hrs by SRB assay relative to control; conditions: read-out: GI
# [9] = test system: T47D; assay: Cytotoxicity against human T47D cells assessed as growth inhibition at 10 uM after 48 hrs by SRB assay relative to control; conditions: read-out: GI
# [10] = test system: UACC-62; assay: Cytotoxicity against human UACC62 cells assessed as growth inhibition at 10 uM after 48 hrs by SRB assay relative to control; conditions: UACC-62, 48 h, read-out: GI
# [11] = test system: SNB-75; assay: Cytotoxicity against human SNB75 cells assessed as growth inhibition at 10 uM after 48 hrs by SRB assay relative to control; conditions: SNB-75, 48 h, read-out: GI
# [12] = test system: UO-31; assay: Cytotoxicity against human UO31 cells assessed as growth inhibition at 10 uM after 48 hrs by SRB assay relative to control; conditions: UO-31, 48 h, read-out: GI
# [13] = test system: HCT-15; assay: Cytotoxicity against human HCT15 cells assessed as growth inhibition at 10 uM after 48 hrs by SRB assay relative to control; conditions: HCT-15, 48 h, read-out: GI
# [14] = test system: SN12C; assay: Cytotoxicity against human SN12C cells assessed as growth inhibition at 10 uM after 48 hrs by SRB assay relative to control; conditions: read-out: GI
# [15] = test system: SF-268; assay: Cytotoxicity against human SF268 cells assessed as growth inhibition at 10 uM after 48 hrs by SRB assay relative to control; conditions: SF-268, 48 h, read-out: GI
# [16] = test system: MOLT-4; assay: Cytotoxicity against human MOLT4 cells assessed as growth inhibition at 10 uM after 48 hrs by SRB assay relative to control; conditions: MOLT-4, 48 h, read-out: GI
# [17] = test system: HCC 2998; assay: Cytotoxicity against human HCC2998 cells assessed as growth inhibition at 10 uM after 48 hrs by SRB assay relative to control; conditions: HCC 2998, 48 h, read-out: GI
# [18] = test system: SK-MEL-2; assay: Cytotoxicity against human SK-MEL-2 cells assessed as growth inhibition at 10 uM after 48 hrs by SRB assay relative to control; conditions: SK-MEL-2, 48 h, read-out: GI
# [19] = test system: OVCAR-8; assay: Cytotoxicity against human OVCAR8 cells assessed as growth inhibition at 10 uM after 48 hrs by SRB assay relative to control; conditions: OVCAR-8, 48 h, read-out: GI
# [20] = test system: ACHN; assay: Cytotoxicity against human ACHN cells assessed as growth inhibition at 10 uM after 48 hrs by SRB assay relative to control; conditions: read-out: GI
# [21] = test system: M14; assay: Cytotoxicity against human M14 cells assessed as growth inhibition at 10 uM after 48 hrs by SRB assay relative to control; conditions: M14, 48 h, read-out: GI
# [22] = test system: SK-MEL-28; assay: Cytotoxicity against human SK-MEL-28 cells assessed as growth inhibition at 10 uM after 48 hrs by SRB assay relative to control; conditions: SK-MEL-28, 48 h, read-out: GI
# [23] = test system: MDA-MB-468; assay: Cytotoxicity against human MDA-MB-468 cells assessed as growth inhibition at 10 uM after 48 hrs by SRB assay relative to control; conditions: MDA-MB-468, 48 h, read-out: GI
# [24] = test system: IGROV-1; assay: Cytotoxicity against human IGROV1 cells assessed as growth inhibition at 10 uM after 48 hrs by SRB assay relative to control; conditions: IGROV-1, 48 h, read-out: GI
# [25] = test system: HOP-62; assay: Cytotoxicity against human HOP62 cells assessed as growth inhibition at 10 uM after 48 hrs by SRB assay relative to control; conditions: HOP-62, 48 h, read-out: GI
# [26] = test system: Malme-3M; assay: Cytotoxicity against human MALME-3M cells assessed as growth inhibition at 10 uM after 48 hrs by SRB assay relative to control; conditions: read-out: GI
# [27] = test system: KM12; assay: Cytotoxicity against human KM12 cells assessed as growth inhibition at 10 uM after 48 hrs by SRB assay relative to control; conditions: KM12, 48 h, read-out: GI
# [28] = test system: MDA-MB-231; assay: Cytotoxicity against human MDA-MB-231 cells assessed as growth inhibition at 10 uM after 48 hrs by SRB assay relative to control; conditions: MDA-MB-231, 48 h, read-out: GI
# [29] = test system: OVCAR-3; assay: Cytotoxicity against human OVCAR3 cells assessed as growth inhibition at 10 uM after 48 hrs by SRB assay relative to control; conditions: OVCAR-3, 48 h, read-out: GI
# [30] = test system: OVCAR-4; assay: Cytotoxicity against human OVCAR4 cells assessed as growth inhibition at 10 uM after 48 hrs by SRB assay relative to control; conditions: OVCAR-4, 48 h, read-out: GI
# [31] = test system: BT-549; assay: Cytotoxicity against human BT549 cells assessed as growth inhibition at 10 uM after 48 hrs by SRB assay relative to control; conditions: BT-549, 48 h, read-out: GI
# [32] = test system: SR; assay: Cytotoxicity against human SR cells assessed as growth inhibition at 10 uM after 48 hrs by SRB assay relative to control; conditions: read-out: GI
# [33] = test system: CCRF-CEM; assay: Cytotoxicity against human CCRF-CEM cells assessed as growth inhibition at 10 uM after 48 hrs by SRB assay relative to control; conditions: read-out: GI
# [34] = test system: UACC-257; assay: Cytotoxicity against human UACC257 cells assessed as growth inhibition at 10 uM after 48 hrs by SRB assay relative to control; conditions: UACC-257, 48 h, read-out: GI
# [35] = test system: Hs-578T; assay: Cytotoxicity against human Hs578T cells assessed as growth inhibition at 10 uM after 48 hrs by SRB assay relative to control; conditions: read-out: GI
SMILES,inhibition of growth at 10 µM [1] [%],inhibition of growth at 10 µM [2] [%],inhibition of growth at 10 µM [3] [%],inhibition of growth at 10 µM [4] [%],inhibition of growth at 10 µM [5] [%],inhibition of growth at 10 µM [6] [%],inhibition of growth at 10 µM [7] [%],inhibition of growth at 10 µM [8] [%],inhibition of growth at 10 µM [9] [%],inhibition of growth at 10 µM [10] [%],inhibition of growth at 10 µM [11] [%],inhibition of growth at 10 µM [12] [%],inhibition of growth at 10 µM [13] [%],inhibition of growth at 10 µM [14] [%],inhibition of growth at 10 µM [15] [%],inhibition of growth at 10 µM [16] [%],inhibition of growth at 10 µM [17] [%],inhibition of growth at 10 µM [18] [%],inhibition of growth at 10 µM [19] [%],inhibition of growth at 10 µM [20] [%],also measured
O=c1oc2cc(N3CCOCC3)ccc2cc1-c1nc2ccccc2[nH]1,< 20,< 20,20.7,< 20,< 20,< 20,< 20,< 20,< 20,< 20,< 20,24.9,< 20,< 20,< 20,< 20,< 20,< 20,< 20,< 20,inhibition of growth at 10 µM [21]: < 20%; inhibition of growth at 10 µM [22]: < 20%; inhibition of growth at 10 µM [23]: < 20%; inhibition of growth at 10 µM [24]: < 20%; inhibition of growth at 10 µM [25]: < 20%; inhibition of growth at 10 µM [26]: < 20%; inhibition of growth at 10 µM [27]: < 20%; inhibition of growth at 10 µM [28]: < 20%; inhibition of growth at 10 µM [29]: < 20%; inhibition of growth at 10 µM [30]: < 20%; inhibition of growth at 10 µM [31]: < 20%; inhibition of growth at 10 µM [32]: < 20%; inhibition of growth at 10 µM [33]: < 20%; inhibition of growth at 10 µM [34]: < 20%; inhibition of growth at 10 µM [35]: < 20%
O=c1oc2cc(NCCO)ccc2cc1-c1nc2ccccc2[nH]1,57.3,< 20,< 20,21.4,56.7,30,< 20,23.7,70.7,27.2,< 20,41.9,72.7,22.4,26.1,38,< 20,< 20,31.4,< 20,inhibition of growth at 10 µM [21]: 25.4%; inhibition of growth at 10 µM [22]: < 20%; inhibition of growth at 10 µM [23]: 48.4%; inhibition of growth at 10 µM [24]: 24.5%; inhibition of growth at 10 µM [25]: 24.8%; inhibition of growth at 10 µM [26]: 29.8%; inhibition of growth at 10 µM [27]: < 20%; inhibition of growth at 10 µM [28]: 58.9%; inhibition of growth at 10 µM [29]: 32.8%; inhibition of growth at 10 µM [30]: 44.8%; inhibition of growth at 10 µM [31]: 33.1%; inhibition of growth at 10 µM [32]: < 20%; inhibition of growth at 10 µM [33]: 72.5%; inhibition of growth at 10 µM [34]: 28%; inhibition of growth at 10 µM [35]: < 20%
